One may read the melting point as the temperature, or range, at which the solid turns liquid.

For one series, the system named is T-47D. Type of series: cell-based. The conditions noted are these: 10^−5 molar; for Growth percent: T-47D.
Another series concerns SW-620. Type of series: cell-based. The settings on record: 10^−5 molar; for Growth percent: SW-620.
The subject of the next series is SN12C. Type of series: cell-based. The conditions noted are these: 10^−5 molar; for Growth percent: SN12C.
In a further series the test system is ACHN. Type of series: cell-based. The settings on record: 10^−5 molar; for Growth percent: ACHN.
The next series relates to MDA-MB-486. The series is classed as cell-based. The settings on record: 10^−5 molar; for Growth percent: MDA-MB-486.
Another series has as its system M14. Type of series: cell-based. The settings on record: 10^−5 molar; for Growth percent: M14.
For the next series, the system named is SF-295. Type of series: cell-based. The settings on record: 10^−5 molar; for Growth percent: SF-295.
For the next series, the system named is IGROV1. The series is classed as cell-based. The settings on record: 10^−5 molar; for Growth percent: IGROV1.
A further series has as its system HCC-2998. Type of series: cell-based. The settings on record: 10^−5 molar; for Growth percent: HCC-2998.
The next series concerns OVCAR-4. Type of series: cell-based. The conditions noted are these: 10^−5 molar; for Growth percent: OVCAR-4.
A further series concerns SR. Type of series: cell-based. The settings on record: 10^−5 molar; for Growth percent: SR.
A further series concerns CAKI-1. The series is classed as cell-based. The conditions noted are these: 10^−5 molar; for Growth percent: CAKI-1.
Another series relates to HCT-15. Type of series: cell-based. The conditions noted are these: 10^−5 molar; for Growth percent: HCT-15.
The next series concerns UACC-257. The series is classed as cell-based. The settings on record: 10^−5 molar; for Growth percent: UACC-257.
The subject of the next series is OVCAR-3. Type of series: cell-based. The conditions noted are these: 10^−5 molar.
The next series deals with HCT-116. Type of series: cell-based. The conditions noted are these: 10^−5 molar; for Growth percent: HCT-116.
The test system of another series is NCI/ADR-RES. The series is classed as cell-based. The settings on record: 10^−5 molar; for Growth percent: NCI/ADR-RES.
A further series deals with SK-MEL-2. The series is classed as cell-based. The settings on record: SK-Mel-2; 10^−5 molar.
The subject of another series is SF-539. Type of series: cell-based. The settings on record: SF-539; 10^−5 molar.
For a further series, the system named is HOP-92. Type of series: cell-based. The conditions noted are these: HOP-92; 10^−5 molar.

SMILES strings stand for the structures.

The compound `CC(C)CC(C)Nc1nc2ccccc2c2c(=O)c3cc(Cl)ccc3sc12` (stereo not shown) [Compound N13, 10-Chloro-6-((4-methylpentan-2-yl)amino)-12H-thiochromeno[2,3-c]quinolin-12-one] gave a melting point of 176 to 177 °C. In addition, the “Growth percent T-47D” value with T-47D (Breast cancer, 48 hours, SRB) is 73.76%. Moreover, the “Growth percent SW-620” value with SW-620 (Colon cancer, 48 hours, SRB) was 92.80%. Further, in the series with SN12C (Renal cancer, 48 hours, SRB), the “Growth percent SN12C” value worked out at 95.14%. The “Growth percent ACHN” value with ACHN (Renal cancer, 48 hours, SRB) was found to be 91.24%. The “Growth percent MDA-MB-486” value in the series with MDA-MB-486 (Breast cancer, 48 hours, SRB) turned out to be 96.02%. Moreover, the “Growth percent M14” value in the series on M14 (Melanoma, 48 hours, SRB) was 94.27%. For the same compound, the “Growth percent SF-295” value in the series on SF-295 (CNS cancer, 48 hours, SRB) was found to be 95.92%. The “Growth percent IGROV1” value in the series with IGROV1 (Ovarian cancer, 48 hours, SRB) stood at 74.77%. The “Growth percent HCC-2998” value in the series with HCC-2998 (Colon cancer, 48 hours, SRB) is reported as 112.26%. The “Growth percent OVCAR-4” value with OVCAR-4 (Ovarian cancer, 48 hours, SRB) is 86.07%. Further, the “Growth percent SR” value in the series with SR (Leukemia, 48 hours, SRB) worked out at 97.29%. For the same compound, the “Growth percent CAKI-1” value in the series on CAKI-1 (Renal cancer, 48 hours, SRB) was 86.38%. Moreover, the “Growth percent HCT-15” value in the series with HCT-15 (Colon cancer, 48 hours, SRB) was 96.97%. Besides, in the series with UACC-257 (Melanoma, 48 hours, SRB), the “Growth percent UACC-257” value is on record as 114.40%. In the series with OVCAR-3 (Ovarian cancer, 48 hours, SRB), the “Growth percent OVCAR-3” value was 115.22%. Moreover, in the series on HCT-116 (Colon cancer, 48 hours, SRB), the “Growth percent HCT-116” value came out at 90.30%. Further, the “Growth percent NCI/ADR-RES” value in the series with NCI/ADR-RES (Ovarian cancer, 48 hours, SRB) was determined as 98.47%.

For the compound `O=c1c2cc(Cl)ccc2sc2c(NCCN3CCOCC3)nc3ccccc3c12` [Compound N16, 10-Chloro-6-((2-morpholinoethyl)amino)-12H-thiochromeno[2,3-c]quinolin-12-one], the melting point fell in the range of 189 to 190 °C. Further, the Growth percent with T-47D turned out to be 47.63%. The compound also had a Growth percent with SK-MEL-2 of 94.52%. In the series on SW-620, this compound displayed a Growth percent of 99.65%. The Growth percent in the series on SN12C is 95.98%. The same compound yielded a Growth percent with ACHN of 91.61%. Further, in the series with MDA-MB-486, the Growth percent is 74.34%. The Growth percent with M14 was 99.59%. In addition, the Growth percent in the series with SF-295 is recorded as 102.17%. The Growth percent in the series with IGROV1 was 74.11%. The Growth percent in the series on HCC-2998 is recorded as 90.51%. In the series on SR, this compound yielded a Growth percent of 67.74%. In the series with HCT-15, this compound returned a Growth percent of 58.81%. This compound also returned a Growth percent with UACC-257 of 106.52%. For the same compound, the Growth percent in the series with SF-539 turned out to be 76.72%. The compound further showed a Growth percent in the series on HOP-92 of 58.79%. In the series with OVCAR-3 (OVCAR-3), this compound yielded a Growth percent of 97.14%. For the same compound, the Growth percent in the series with HCT-116 is on record as 81.64%. Moreover, the Growth percent with NCI/ADR-RES is 77.03%.

`O=c1c2cc(Cl)ccc2sc2c(NCc3ccc4c(c3)OCO4)nc3ccccc3c12` [Compound N27, 6-((Benzo[d][1,3]dioxol-5-ylmethyl)amino)-10-chloro-12H-thiochromeno[2,3-c]quinolin-12-one] came in with a melting point of 205 to 206 °C. The same compound gave a Growth percent in the series with T-47D of 74.41%. The Growth percent with SK-MEL-2 was 95.57%. The same compound gave a Growth percent in the series with SW-620 of 76.95%. Further, in the series on SN12C, the Growth percent was 85.53%. The compound further returned a Growth percent in the series on ACHN of 58.48%. In the series on MDA-MB-486, this compound returned a Growth percent of 60.47%. In the series with M14, this compound gave a Growth percent of 94.93%. The compound further had a Growth percent in the series with SF-295 of 94.39%. In addition, in the series with IGROV1, the Growth percent was determined as 67.81%. In the series on OVCAR-4, this compound registered a Growth percent of 53.73%. The Growth percent in the series with SR is listed as 79.57%. Besides, the Growth percent in the series on CAKI-1 was 75.09%. Further, the Growth percent with HCT-15 is on record as 77.41%. The Growth percent with SF-539 amounted to 77.12%. The compound further yielded a Growth percent in the series on HOP-92 of 45.39%. Moreover, in the series on HCT-116, the Growth percent is listed as 69.98%. The compound further registered a Growth percent in the series on NCI/ADR-RES of 91.11%.

As for `O=c1c2cc(Cl)ccc2sc2c(NCCc3ccccc3)nc3ccccc3c12` [Compound N30, 10-Chloro-6-(phenethylamino)-12H-thiochromeno[2,3-c]quinolin-12-one], the melting point was 151 to 152 °C. The compound also had a Growth percent with T-47D of 71.96%. The compound also displayed a Growth percent in the series with SK-MEL-2 of 106.33%. The Growth percent in the series on SW-620 came out at 93.45%. For the same compound, the Growth percent in the series with SN12C was found to be 86.54%. In the series on ACHN, this compound gave a Growth percent of 90.85%. The compound further came in with a Growth percent with MDA-MB-486 of 63.11%. The compound also yielded a Growth percent with M14 of 97.97%. In the series with SF-295, this compound displayed a Growth percent of 95.46%. The compound further returned a Growth percent in the series on HCC-2998 of 113.77%. In addition, in the series with OVCAR-4, the Growth percent stood at 79.53%. For the same compound, the Growth percent with SR was 89.88%. This compound showed a Growth percent with CAKI-1 of 81.04%. The Growth percent in the series with HCT-15 was found to be 91.82%. This compound showed a Growth percent in the series on UACC-257 of 109.29%. Also, the Growth percent with SF-539 worked out at 97.86%. This compound also registered a Growth percent in the series on HOP-92 of 73.02%. In the series on HCT-116, the Growth percent was 85.77%. For the same compound, the Growth percent in the series on NCI/ADR-RES is listed as 96.51%.

For `COc1ccc(CCNc2nc3ccccc3c3c(=O)c4cc(Cl)ccc4sc23)cc1` [Compound N31, 10-Chloro-6-((4-methoxyphenethyl)amino)-12H-thiochromeno[2,3-c]quinolin-12-one], the melting point is 214 to 215 °C. This compound also returned a Growth percent in the series on T-47D of 69.90%. This compound also displayed a Growth percent in the series on SK-MEL-2 of 113.12%. In addition, the Growth percent with SW-620 is 97.10%. This compound showed a Growth percent in the series on SN12C of 94.23%. The Growth percent in the series with ACHN worked out at 91.19%. Further, the Growth percent in the series on MDA-MB-486 is 53.93%. In the series on M14, the Growth percent was 100.06%. Further, the Growth percent in the series with SF-295 is given as 95.31%. The Growth percent in the series on IGROV1 amounted to 86.73%. This compound also displayed a Growth percent in the series on HCC-2998 of 105.27%. For the same compound, the Growth percent in the series with OVCAR-4 was determined as 79.00%. The compound also registered a Growth percent in the series on SR of 94.13%. In addition, the Growth percent in the series on CAKI-1 was found to be 85.75%. Further, the Growth percent in the series with HCT-15 turned out to be 100.67%. In addition, in the series on UACC-257, the Growth percent was determined as 98.66%. The same compound yielded a Growth percent in the series on SF-539 of 95.67%. This compound displayed a Growth percent in the series on HOP-92 of 67.57%. Further, the Growth percent with HCT-116 worked out at 98.46%. This compound also showed a Growth percent with NCI/ADR-RES of 103.78%.

The record behind these values is patent US8927717B1, “Thiochromeno[2,3-c]quinolin-12-one derivatives, preparation method and application thereof” (National Defense Medical Center, priority 2014, dated 2015).
